Where two headings read alike, the source gives them in different places. No end group written: not given here.
Legend:
[1] = test system: PBMCs of HLA-A24+ glioma patients; type: cell-based, human; settings: for IFN-γ: vs HIV peptide
[2] = test system: anti-peptide immunoglobulin G (IgG) in plasma; test: Anti-peptide IgG in plasma measured by the Luminex system; type: binding, human; settings: for Positive cases/total cases, Patients: Table 3, IgGs reactive to peptide in plasma of glioma patients; for Positive cases/total cases, Healthy donors: Table 3, IgGs reactive to peptide in plasma of healthy donors; for Positive cases/total cases, Total: Table 3, patients plus healthy donors; for Recognition by IgGs in the plasma compared with the other peptides: plasma of glioma patients and healthy donors; for Total (IgG-positive cases/total cases): positive = >1.25 times no peptide control
Experimental: The levels of anti-peptide immunoglobulin G (IgG) were measured by the Luminex™ system as previously reported (Komatsu N et al, Scand J Clin Invest 2004; 64: 1-11). In brief, plasma was incubated with 25 μl of peptide-coupled color-coded beads (Luminex Corp., Austin, Tex., USA) for 2 h at room temperature on a plate shaker. After incubation, the mixture was washed with a vacuum manifold apparatus and incubated with 100 μl of biotinylated goat anti-human IgG (BA-3080, Vector Laboratories, Burlingame, Calif., USA) for 1 h at room temperature. The plate was then washed, and 100 μl of streptavidin-PE (S-866, Molecular Probes, Eugene, Oreg., USA) was added to each well and was incubated for 30 min at room temperature on a plate shaker. The bound beads were washed three times followed by the addition of 100 μl of Tween-PBS to each well. Fifty μl of each sample was then examined using the Luminex™ system.
Next, the abilities of the KIF-derived peptides to be recognized by IgGs of glioma patients were examined, because IgGs reactive to CTL-directed peptides are detectable in the plasma of patients with different types of cancer (Nakatsura T et al, Eur J Immunol 32: 826-836, 2002), along with that levels of IgG well correlated with clinical responses of patients who received peptide vaccination as reported previously (Mine T et al, Clin Cancer Res 10: 929-937, 2004; Yajima N et al, Clin Cancer Res 11: 5900-5911, 2005). IgGs reactive to a corresponding peptide were judged to be significant when the immunofluorescence intensity in 1:100-diluted plasma exceeded 1.25 times that of the control samples with no peptides. […] Based on these findings, these 8 KIF peptides (3 for KIF1C, 3 for KIF3C, and 2 for KIF21B) were the focus of the following experiments.

KNS-81 cells = test: 6-h 51Cr-release cytotoxicity assay of peptide-stimulated PBMCs / CD8+ T cells; type: cell-based, human; settings: for Cytotoxicity of peptide-induced CD8+ T cells on addition of anti-HLA class I mAb / Cytotoxicity on addition of unlabeled C1R-A24 cells pre-pulsed with corresponding KIF peptide (cold inhibition): KNS-81 cells; for Cytotoxicity of peptide-induced CD8+ T cells on addition of anti-HLA class I mAb: FIG. 3A, not inhibited by anti-HLA class II (HLA-DR) or anti-CD14 mAb; for Cytotoxicity on addition of unlabeled C1R-A24 cells pre-pulsed with corresponding KIF peptide (cold inhibition): FIG. 3B, not inhibited by HIV peptide-pulsed C1R-A24 cells; for Cytotoxicity of peptide-stimulated PBMCs against KNS-81 cells: patients 3 and 5, HLA-A24+ KNS-81 vs HLA-A24- No. 11 cells and HLA-A24+ T-cell blasts
Experimental: Peptide-stimulated PBMCs were tested for their cytotoxicity against No. 11 (HLA-A24 negative) and KNS-81 (HLA-A24 positive) by a standard 6-h ^51Cr-release assay. Phytohaemagglutinin (PHA)-activated T cells (T cell blast) from HLA-A24 positive healthy donors were used as a negative control. The PBMCs were stimulated with each of the KIF peptides (10 μg/ml) in the presence of IL-2 (100 units/ml) every 3 days for 15 days, followed by incubation with IL-2 alone for an additional 15 days. After CD8^+ T cells were positively isolated using a CD8-positive isolation kit (Dynal, Oslo, Norway), 2,000 ^51Cr-labeled cells per well were cultured with effector cells in 96-round-well plates. The specific ^51Cr-release was calculated according to the following formula: % specific lysis=(test sample release−spontaneous release)×100/(maximum release−spontaneous release). Spontaneous release was determined using the supernatant of the sample incubated with no effector cells, and the maximum release was then determined by the supernatant of the sample incubated with 1% Triton X (Wako Pure Chemical Industries, Osaka, Japan). In some experiments, anti-HLA class I (W6/32, mouse IgG2a) (BioLegend, Camino Santa Fe, San Diego, Calif., USA), anti-HLA class II (HLA-DR) (L243, mouse IgG2a) (ATCC #HB-55), and anti-CD14 (JML-H14, mouse IgG2a) (established in Department of Immunology, Kurume University) mAb were added to the wells at the initiation of the culture. The specificity of peptide-stimulated PBMCs was also confirmed by a cold inhibition assay. 20,000 unlabeled C1R-A24 cells, which were pre-pulsed with either the HIV peptide or a corresponding peptide, were used as cold target cells. Unlabeled C1R-A24 cells were added at a hot to cold target ratio of […].

[3] = HLA-A24+ glioma patients, positive = P<0.05 and >100 pg/ml IFN-γ over HIV peptide
[4] = PBMCs of HLA-A24+ glioma Patient 1, 10 μg/ml peptide
[5] = PBMCs of HLA-A24+ glioma Patient 2, 10 μg/ml peptide
[6] = PBMCs of HLA-A24+ glioma Patient 3, 10 μg/ml peptide
[7] = PBMCs of HLA-A24+ glioma Patient 7, 10 μg/ml peptide
[8] = PBMCs of HLA-A24+ glioma Patient 9, 10 μg/ml peptide
[9] = PBMCs of HLA-A24+ glioma Patient 10, 10 μg/ml peptide
[10] = PBMCs of HLA-A24+ glioma Patient 4, 10 μg/ml peptide
[11] = PBMCs of HLA-A24+ glioma Patient 5, 10 μg/ml peptide
[12] = PBMCs of HLA-A24+ glioma Patient 8, 10 μg/ml peptide
[13] = Healthy donor 2, 1:100-diluted plasma
[14] = Healthy donor 4, 1:100-diluted plasma
[15] = glioma Patient 4, 1:100-diluted plasma
[16] = glioma Patient 8, 1:100-diluted plasma
[17] = glioma Patient 9, 1:100-diluted plasma

| Sequence | Total (patients with induction of peptide-reactive CTLs) [1, 3] | IFN-γ [1, 4] [pg/mL] | IFN-γ [1, 5] [pg/mL] | IFN-γ [1, 6] [pg/mL] | IFN-γ [1, 7] [pg/mL] | IFN-γ [1, 8] [pg/mL] | IFN-γ [1, 9] [pg/mL] | Positive cases/total cases, Patients [2] | Positive cases/total cases, Healthy donors [2] | Positive cases/total cases, Total [2] | Recognition by IgGs in the plasma compared with the other peptides [2] | IFN-γ [1, 10] [pg/mL] | IFN-γ [1, 12] [pg/mL] | other results |
| --- | --- | --- | --- | --- | --- | --- | --- | --- | --- | --- | --- | --- | --- | --- |
| GYASTDEEI (KIF21B 220-228 peptide) | 4/10 | 0 | 29 | 56 | 51 | 0 | 0 | 2/10 | 3/10 | 5/20 | more frequently |  |  |  |
| HYDGIECLAI (KIF21B 621-630 peptide) | 3/10 | 0 | 10 | 0 | 93 | 0 | 0 | 2/10 | 5/10 | 7/20 | more frequently | 0 |  |  |
| IYCERVRDL (KIF1C 149-157 peptide) | 4/10 | 92 | 0 |  |  |  | 0 | 7/10 | 8/10 | 15/20 | more frequently | 50 | 0 | IFN-γ [1, 11]: 0 pg/mL; Immunofluoresence intensity [2, 13]: 31.8; Immunofluoresence intensity [2, 14]: 47.8; Total (IgG-positive cases/total cases) ([2]; Table 2, glioma patients): 7/10; Total (IgG-positive cases/total cases) ([2]; Table 2, healthy donors): 8/10; Immunofluoresence intensity [2, 15]: 29.5; Immunofluoresence intensity [2, 16]: 12.3; Immunofluoresence intensity [2, 17]: 27.3 |
| IYCERVRDLL [KIF1C 149-158] |  |  |  |  |  |  |  |  |  |  |  |  |  | Cytotoxicity of peptide-induced CD8+ T cells on addition of anti-HLA class I mAb (KNS-81 cells): significantly inhibited; Cytotoxicity on addition of unlabeled C1R-A24 cells pre-pulsed with corresponding KIF peptide (cold inhibition) (KNS-81 cells): significantly inhibited; Cytotoxicity of peptide-stimulated PBMCs against KNS-81 cells (KNS-81 cells): higher level of cytotoxicity against HLA-A24^+ KNS-81 cells |
| KYKAMESKL [KIF3C 512-520] |  |  |  |  |  |  |  |  |  |  |  |  |  | Cytotoxicity of peptide-induced CD8+ T cells on addition of anti-HLA class I mAb (KNS-81 cells): significantly inhibited; Cytotoxicity on addition of unlabeled C1R-A24 cells pre-pulsed with corresponding KIF peptide (cold inhibition) (KNS-81 cells): significantly inhibited; Cytotoxicity of peptide-stimulated PBMCs against KNS-81 cells (KNS-81 cells): higher level of cytotoxicity against HLA-A24^+ KNS-81 cells |
| NYLQEQKERL (KIF3C 458-467 peptide) | 3/10 | 34 | 0 | 30 |  |  | 0 | 4/10 | 4/10 | 8/20 | more frequently |  | 38 | IFN-γ [1, 11]: 66 pg/mL; IFN-γ ([1]; PBMCs of HLA-A24+ glioma Patient 6, 10 μg/ml peptide): 55 pg/mL |
| RFYIQMCTEL (Flu virus-derived peptide) [reference compound] | 3/10 | 29 | 0 |  | 95 | 0 | 0 |  |  |  |  | 0 | 0 |  |
| RYADRTKQI (KIF1C 340-348 peptide) | 3/10 | 66 | 16 |  | 65 | 52 | 0 | 7/10 | 7/10 | 14/20 | more frequently | 80 | 96 | Immunofluoresence intensity [2, 13]: 21.5; Immunofluoresence intensity [2, 14]: 45.3; Immunofluoresence intensity ([2]; Healthy donor 5, 1:100-diluted plasma): 59.0; Total (IgG-positive cases/total cases) ([2]; Table 2, glioma patients): 7/10; Total (IgG-positive cases/total cases) ([2]; Table 2, healthy donors): 7/10; Immunofluoresence intensity [2, 15]: 26.0; Immunofluoresence intensity [2, 16]: 14.8; Immunofluoresence intensity [2, 17]: 17.5 |
| RYRAENIMF (KIF3C 702-710 peptide) | 3/10 | 11 | 0 | 73 |  | 22 | 0 | 7/10 | 9/10 | 16/20 | more frequently | 0 | 96 |  |
| TYGPVFMCL [EBV, reference compound] |  |  |  |  |  |  |  |  |  |  |  |  |  | Total (patients with induction of peptide-reactive CTLs) [1]: 1/10 |
